This note sets out measurements from patent US4939137A, “Ring-fused thienopyrimidinedione derivatives” (Ortho Pharmaceutical Corporation, priority 1989, dated 1990).

Assay [1] deals with T1, 5HT1A receptor (Rattus norvegicus, UniProt P19327).
T1 construct: Membrane fragments were prepared from the frontal cortex dissected from brains obtained from female rats; from tissue; host or cells: frontal cortex, female rats
T1 sequence (P19327 1-422): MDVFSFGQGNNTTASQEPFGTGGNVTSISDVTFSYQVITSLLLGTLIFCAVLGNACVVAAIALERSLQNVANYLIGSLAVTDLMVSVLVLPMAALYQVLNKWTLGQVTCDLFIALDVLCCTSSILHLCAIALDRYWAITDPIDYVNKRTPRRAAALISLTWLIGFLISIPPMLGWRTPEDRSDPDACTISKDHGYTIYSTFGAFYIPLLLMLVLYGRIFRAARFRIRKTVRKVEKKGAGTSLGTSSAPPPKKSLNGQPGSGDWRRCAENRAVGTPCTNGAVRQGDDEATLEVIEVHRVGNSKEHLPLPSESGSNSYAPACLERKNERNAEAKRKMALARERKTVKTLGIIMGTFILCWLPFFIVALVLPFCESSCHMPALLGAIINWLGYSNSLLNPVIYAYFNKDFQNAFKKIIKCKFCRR
Description: Brain Serotonin 5HT1A Radioreceptor Assay (3H-80H-DPAT). The note with it: for IC50: rat frontal cortex membranes, 10 minutes, 37° C., read-out: RECEPTOR BINDING 5HT-1A (IC50); for inhibition at 1 µM: @ 10^-6, rat frontal cortex membranes, read-out: RECEPTOR BINDING 5HT-1A, % @ 10^-6. Format: binding. Here is the method: Membrane fragments were prepared from the frontal cortex dissected from brains obtained from female rats (~150 g). The 5HT1A sites were labeled with ^3 H-80H-dipropylaminotetralin (^3 H-80H-DPAT). Membrane fragments, ^3 H-80H-DPAT and an unlabeled test compound were incubated for 10 minutes at 37° C. The tubes were then placed in an ice bath for an additional 10 minutes. Compound bound to the receptor site was separated from the remaining unbound compound by vacuum filtration.
The ability of a nonlabeled compound to compete with ^3 H-80H-DPAT for binding sites was a measure of the compound's affinity for the 5HT1A receptor. Specific binding was determined by the difference between total counts bound and counts bound in the presence of 10^-5 M serotonin.
Data are presented at the IC50, the concentration of nonlabeled compound required to displace 50% of the ^3 H-80H-DPAT specifically bound to 5HT1A binding sites.

Assay [2] addresses T2, 5HT2 receptor (Rattus norvegicus, UniProt P14842).
T2 construct: Membrane fragments were prepared from the frontal cortex dissected from brains obtained from female rats; from tissue; host or cells: frontal cortex, female rats
Nature of the assay: Brain Serotonin 5HT2 Radioreceptor Assay (3H-ketanserin). Format: binding. The note with it: for IC50: rat frontal cortex membranes, 15 minutes, 37° C., read-out: RECEPTOR BINDING 5HT-2 (IC50); for inhibition at 1 µM: 0.25 h, @ 10^-6, rat frontal cortex membranes, read-out: RECEPTOR BINDING 5HT-2, % @ 10^-6. Here is the method: Membrane fragments were prepared from the frontal cortex dissected from brains obtained from female rats (~150 g). The 5HT2 sites were labeled with ^3 H-ketanserin. Membrane fragments, ^3 H-ketanserin and an unlabeled test compound were incubated for 15 minutes at 37° C. Compound bound to the receptor site was separated from the remaining unbound compound by vacuum filtration.
The ability of a nonlabeled compound to compete with ^3 H-ketanserin for binding sites was a measure of the compound's affinity for the 5HT2 receptor. Specific binding was determined by the difference between total counts bound and counts bound in the presence of 10^-6 M methysergide.
Data are presented as the IC50, the concentration of nonlabeled compound required to displace 50% of the ^3 H-ketanserin specifically bound to 5HT2 binding sites.

Assay [3] has as its target alpha-1 adrenergic receptor. Description: Brain Alpha-1 Radioreceptor Assay (3H-prazosin). The following applies: guinea pig brain membranes, 30 minutes, 30° C., read-out: RECEPTOR BINDING ALPHA-1 (IC50). Here is the method:
Membrane fragments were prepared from the brains of mature female guinea pigs after removal of the corpus striata. The alpha-1 adrenergic receptor sites were labeled with ^3 H-prazosin. Membrane fragments, ^3 H-prazosin and an unlabeled test compound were incubated for 30 minutes at 30° C. Compound bound to the receptor site was separated from the remaining unbound radioligand by vacuum filtration. Specific binding was determined by the difference between total counts bound and counts bound in the presence of 10-^5 M phentolamine.

T2 sequence (P14842 whole entry, the tested form may be a part): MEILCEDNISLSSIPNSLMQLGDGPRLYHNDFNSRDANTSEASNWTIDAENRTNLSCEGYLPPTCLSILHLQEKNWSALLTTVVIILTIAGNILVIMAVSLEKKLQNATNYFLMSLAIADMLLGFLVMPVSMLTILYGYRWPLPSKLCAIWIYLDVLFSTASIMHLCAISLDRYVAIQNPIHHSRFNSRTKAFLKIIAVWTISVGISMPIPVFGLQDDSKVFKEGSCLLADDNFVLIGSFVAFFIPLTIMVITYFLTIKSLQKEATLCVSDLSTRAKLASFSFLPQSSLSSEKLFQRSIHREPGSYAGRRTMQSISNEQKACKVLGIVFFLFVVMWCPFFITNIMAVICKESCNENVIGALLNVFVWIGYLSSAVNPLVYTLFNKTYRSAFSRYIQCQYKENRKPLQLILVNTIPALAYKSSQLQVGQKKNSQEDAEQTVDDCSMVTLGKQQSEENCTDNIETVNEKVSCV

As a reminder, the IC50 is the concentration needed to halve the response being measured. Regarding `COc1ccccc1N1CCN(CCCCCn2c(=O)c3csc4c3n(c2=O)CCC4=O)CC1` [Example 12, 3,4,5,7,8,9-Hexahydro-4-[5-[4-(2-methoxyphenyl)piperazin-1-yl]pentyl]thieno[4,3,2-de]pyrido[1,2-c]pyrimidine-3,5,9-trione], the IC50 in assay [1] worked out at 0.045 µM; in assay [2] it was 1.5 µM.

Consider `O=C1CCn2c(=O)n(CCN3CC=C(c4ccccc4)CC3)c(=O)c3csc1c32` [Example 17, 3,4,5,7,8,9-Hexahydro-4-[2-(4-phenyl-1,2,3,6-tetrahydropyridin-1-yl)ethyl]thieno[4,3,2-de]pyrido[1,2-c]pyrimidine-3,5,9-trione], for which the inhibition at 1 µM in assay [1] came out at 1.8%; in assay [2] it was 21%. Moreover, the IC50 in assay [3] is 0.0076 µM.

`COc1ccccc1N1CCN(CCCn2c(=O)c3csc4c3n(c2=O)CCC4=O)CC1` [Example 10, 3,4,5,7,8,9-Hexahydro-4-[3-[4-(2-methoxyphenyl)piperazin-1-yl]propyl]thieno[4,3,2-de]pyrido[1,2-c]pyrimidine-3,5,9-trione]: the IC50 was determined as 0.005 µM in assay [1], 0.021 µM in assay [3] and 0.3 µM in assay [2].

Consider `COc1ccccc1N1CCN(CCn2c(=O)c3csc4c3n(c2=O)CCC4NC(=O)c2ccccc2)CC1` (stereo not shown) [Example 40, 9-Benzoylamino-3,4,5,7,8,9-hexahydro-4-[2-[4-(2-methoxyphenyl)piperazin-1-yl]ethyl]thieno[4,3,2-de]pyrido[1,2-c]pyrimidine-3,5-dione], for which the inhibition at 10 µM in assay [1] (@ 10^-5, rat frontal cortex membranes, read-out: RECEPTOR BINDING 5HT-1A, % @ 10^-5) was 45%. Also, the IC50 worked out at 0.003 µM in assay [3] and 2.5 µM in assay [2].

Turning to `COc1ccccc1N1CCN(CCCCn2c(=O)c3csc4c3n(c2=O)CCC4=O)CC1` [Example 11, 3,4,5,7,8,9-Hexahydro-4-[4-[4-(2-methoxyphenyl)-piperazin-1-yl]butyl]thieno[4,3,2-de]pyrido[1,2-c]pyrimidine-3,5,9-trione], the IC50 in assay [1] was found to be 0.0009 µM; in assay [3], 0.0005 µM. Moreover, the inhibition at 1 µM in assay [2] stood at 33%.

Regarding `O=C1CCn2c(=O)n(CCN3CCN(c4cccc(Cl)c4)CC3)c(=O)c3csc1c32` [Example 7, 4-[2-[4-(3-Chlorophenyl)piperazin-1-yl]ethyl]-3,4,5,7,8,9-hexahydrothieno[4,3,2-de]pyrido[1,2-c]pyrimidine-3,5,9-trione], the IC50 worked out at 0.005 µM in assay [1], 0.18 µM in assay [3] and 0.35 µM in assay [2].

Turning to `O=C1CCn2c(=O)n(CCCCCN3CCC(=C(c4ccc(F)cc4)c4ccc(F)cc4)CC3)c(=O)c3csc1c32` [Example 45, 4-[5-[4-[Bis(4-fluorophenyl)methylene]piperadin-1-yl]pentyl]-3,4,5,7,8,9-hexahydrothieno[4,3,2-de]pyrimidine-3,5,9-trione Monooxalate], the IC50 in assay [1] is 0.24 µM; in assay [2] it was 0.055 µM.

As for `CON=C1CCn2c(=O)n(CCN3CCN(c4cccc(Cl)c4)CC3)c(=O)c3csc1c32` [Example 41, 4-[2-[4-(3-Chlorophenyl)piperazin-1-yl]ethyl]-3,4,5,7,8,9-hexahydro-9-methoxyiminothieno[4,3,2-de]pyrido[1,2-c]pyrimidine-3,5-dione], the IC50 in assay [1] worked out at 1 µM; in assay [3], 40 µM; in assay [2] it was 1 µM.

For the compound `O=C1CCn2c(=O)n(CCCCN3CCN(c4cccc(C(F)(F)F)c4)CC3)c(=O)c3csc1c32` [Example 18, 4-[4-[4-(3-Trifluoromethylphenyl)piperazin-1-yl]butyl]-3,4,5,7,8,9-hexahydrothieno[4,3,2-de]-pyrido[1,2-c]pyrimidine-3,5,9-trione], the IC50 in assay [3] came out at 4.5 µM. For the same compound, the inhibition at 1 µM in assay [2] stood at 47%.

With `O=C1CCn2c(=O)n(CCCCN3CCC(C(=O)c4ccc(F)cc4)CC3)c(=O)c3csc1c32` [Example 42, 4-[4-[4-(4-Fluorobenzoyl)piperidin-1-yl]butyl]-3,4,5,7,8,9-hexahydrothieno[4,3,2-de]pyrido[1,2-c]pyrimidine-3,5,9-trione], the results for the IC50 in assay [1], in assay [3] and in assay [2] were 0.4 µM, 0.54 µM and 0.63 µM, respectively.

Regarding `COc1ccccc1N1CCN(CCn2c(=O)c3csc4c3n(c2=O)CCCC4O)CC1` (stereo not shown) [Example 22, 10-Hydroxy-4,7,8,9-tetrahydro-4-[2-[4-(2-methoxyphenyl)piperazin-1-yl]ethyl]thieno[4,3,2-de]pyrimido[3,4-a]azepine-3,5-dione], the results for the IC50 in assay [1], in assay [3] and in assay [2] were 0.062 µM, 0.0004 µM and 0.27 µM, respectively.

Take `CON=C1CCn2c(=O)n(CCCCCN3CCN(c4cccc(C(F)(F)F)c4)CC3)c(=O)c3csc1c32` [Example 44, 4-[5-[4-(3-Trifluoromethylphenyl)piperazin-1-yl]-pentyl]-3,4,5,7,8,9-hexahydro-9-methoxyiminothieno[4,3,2-de]pyrido[1,2-c]pyrimidine-3,5-dione]: the IC50 stood at 0.2 µM in assay [1] and 0.13 µM in assay [2].

Take `COc1ccccc1N1CCN(CCn2c(=O)c3csc4c3n(c2=O)CCC4NC(C)=O)CC1` (stereo not shown) [Example 39, 9-Acetylamino-3,4,5,7,8,9-hexahydro-4-[2-[4-(2-methoxyphenyl)piperazin-1-yl]ethyl]thieno[4,3,2-de]pyrido[1,2-c]pyrimidine-3,5-dione]: the IC50 in assay [1] was 0.58 µM; in assay [3] it was 0.00035 µM; in assay [2], 0.75 µM.

For `O=C1CCn2c(=O)n(CCN3CCC(C(=O)c4ccc(F)cc4)CC3)c(=O)c3csc1c32` [Example 19, 4-[2-[4-(4-Fluorobenzoyl)piperidin-1-yl]ethyl]-3,4,5,7,8,9-hexahydrothieno[4,3,2-de]pyrido[1,2-c]pyrimidine-3,5,9-trione], the inhibition at 1 µM in assay [1] was 35%. For the same compound, the results for the IC50 in assay [3] and in assay [2] were 1 µM and 0.001 µM, respectively.

Turning to `O=C1CCn2c(=O)n(CCN3CCN(c4cccc(C(F)(F)F)c4)CC3)c(=O)c3csc1c32` [Example 6, 4-[2-[4-(3-Trifluoromethylphenyl)piperazin-1-yl]ethyl]-3,4,5,7,8,9-hexahydrothieno[4,3,2-de]-pyrido[1,2-c]pyrimidine-3,5,9-trione], the IC50 in assay [1] worked out at 0.028 µM; in assay [3], 1 µM; in assay [2] it was 0.7 µM.

Regarding `CON=C1CCn2c(=O)n(CCN3CCN(c4ccccc4OC)CC3)c(=O)c3c(C)sc1c32` [Example 28, 3,4,5,7,8,9-Hexahydro-9-methoxyimino-4-[2-[4-(2-methoxyphenyl)piperazin-1-yl]ethyl]-2-methyl-thieno[4,3,2-de]pyrido[1,2-c]pyrimidine-3,5-dione], the IC50 in assay [1] is 0.02 µM; in assay [3], less than 0.001 µM; in assay [2] it was 0.15 µM.

In the case of `CON=C1CCn2c(=O)n(CCCN3CCN(c4ccccc4OC)CC3)c(=O)c3csc1c32` [Example 29, 3,4,5,7,8,9-Hexahydro-9-methoxyimino-4-[3-[4-(2-methoxyphenyl)piperazin-1-yl]propyl]thieno-[4,3,2-de]pyrido[1,2-c]pyrimidine-3,5-dione], the inhibition at 1 µM in assay [1] was 5.2%; in assay [2] it was 34.3%. Moreover, the IC50 in assay [3] is 0.026 µM.

In the case of `O=C1CCn2c(=O)n(CCCCCN3CCN(c4cccc(C(F)(F)F)c4)CC3)c(=O)c3csc1c32` [Example 43], the IC50 came to 0.052 µM in assay [1] and 0.43 µM in assay [2].
